# Key:
# [1] = LD50 acute toxicity, ddy mice, single abdominal injection; conditions: mouse, in vivo, ip, 5 ddy mice, 14 days observation, Behrens-Koerber's method
# Text: (§1) As used herein, the term "LD50 " denotes the acute toxicity. The term "ED50 " denotes the administered amount needed for reducing the volume of Sarcoma 180 solid tumours in animals to 50% of the corresponding tumour volume in control (untreated) animals. The term "WBC4000 " denotes the minimum dose of the drug needed to reduce the number of peripheral leucocytes to 4000/mm^3. A greater TI value results in a broader tolerance to the drug, which is advantageous for higher anti-tumour activity and decreased toxicity. The term "T" used herein denotes the average survival days of the test animals administered with the test compound. The term "C" denotes the average survival days of the control (untreated) animals. The term "OPD" denotes the dose of the drug resulting in the highest survival ratio. The term "ILS30 " denotes a 30% increase of life-span.
# LD50, ED50 and WBC4000 were respectively determined as follows:
# Each animal of the test group, consisting of 5 ddy mice, was administered once with a test compound by abdominal injection. […] To determine the LD50 value, Behrens-Koerber's method was applied.
# [2] = system: Sarcoma 180 solid tumour; test: ED50 against Sarcoma 180 solid tumour implanted in mice; format: in vivo, male mouse (ddy strain); conditions: for (CI)c: (CI of test compound)/(CI of mitomycin C), CI = LD50/ED50; for ED50: Mus musculus, Sarcoma-180, iv, 168 h, i.v. (tail vein) 24 h after implantation, tumour volume at 7 days, dose for T/C of 0.5
# Text: With regard to the so-called chemotherapeutic index viz. the CI value against sarcoma 180 solid tumour, expressed by the formula: […]
# as §1
# the term (CI)c denotes (CI of the test compound)/(CI of mitomycin C), and
# 5×10^6 sarcoma 180 solid tumor cells were abdominally implanted into ddy mice. 7 days after this, ascites cells were sampled. The cells were washed once with a sterilized physiological saline and were used to prepare a cell suspension containing 5×10^7 cells per ml of a sterilized physiological saline. On each occasion, 0.1 ml of the cell suspension was subcutaneously implanted under the skin of the right armpit of a male mouse (ddy strain; body weight 20±2 g). The test compound which was dissolved in a physiological saline with or without addition of Tween 80 was injected into the tail vein of each animal of a group consisting of 5 mice at a dose of 0.1-0.2 ml 24 hours after the implantation of the tumor cells.
# The anti-tumor activity was determined in the following manner:
# 7 days after the implantation, the major axis (a) and the minor axis (b) of the tumour were measured to calculate a value of (a×b^2)/2 which corresponds to the volume of the tumour. The antitumour activity was expressed by the ratio of the volume of the tumour (T) of the group of animals administered with the test compound to the corresponding volume of tumours (C) of the untreated animals.
# On graph paper, T/C was plotted on the ordinate using an arithmetic scale and the administered amount of test compound was plotted on the abscissa using a logarithmic scale. The relationship between the dose and T/C was shown by a straight line determined by the method of least squares, from which ED50 viz. a dose corresponding to T/C of 0.5 was obtained.
# [3] = system: lymphocytic Leukemia P-388; test: Anti-tumour activity against lymphocytic Leukemia P-388 in mice; format: in vivo, mouse, female of CDF strain
# Text: Also, their therapeutic indexes, expressed by the formula:
# TI=(OPD)/(dose which results in ILS30),
# against lymphocytic Leukemia P-388 and the maximum increased life spans (ILSmax), defined by the formula: […]
# as §1
# The experiment was carried out in the following manner. 1×10^6 lymphocytic Leukemia P-388 tumour cells were abdominally implanted into each mouse of a group consisting of 5 mice (body weight about 22 g; female of CDF strain). 24 hours after implantation, a physiological saline solution (0.2 ml) containing the test compound with or without addition of Tween 80 was abdominally given to the test animal.
# Table 7 indicates anti-tumour activities of selected Compounds (I) against lyphocytic Leukemia P-388.
SMILES,LD50 at 336 h [1],(CI)c [2],ED50 [2],"(ILSmax)c ([3]; (ILSmax of test compound)/(ILSmax of mitomycin C), ILS=(T-C)/C×100)","(TI)c ([3]; (TI of test compound)/(TI of mitomycin C), TI = OPD/dose which results in ILS30)","ED (optimal dose, highest survival) ([3]; Mus musculus, P388, ip, dose resulting in the highest survival ratio, i.p. 24 h after implantation, 30 days, read-out: OPD)","ED (30% increase of life-span) ([3]; Mus musculus, P388, ip, 30% increase of life-span, i.p. 24 h after implantation, read-out: Dose needed to give ILS30)"
"CO[C@@]12[C@H](COC(N)=O)C3=C(C(=O)C(C)=C(NCCSC(=O)N4CCOCC4)C3=O)N1C[C@@H]1N[C@@H]12 [Compound 33, 7-N--(2-morpholinocarbonylthioethyl)mitomycin C]",52.5 mg/kg,1.23,17.8 mg/kg,,,,
"CO[C@@]12[C@H](COC(N)=O)C3=C(C(=O)C(C)=C(NCCSC(=S)NC4CCCCC4)C3=O)N1C[C@@H]1N[C@@H]12 [Compound 37, 7-N--(2-cyclohexylaminothiocarbonylthioethyl)mitomycin C]",41.3 mg/kg,0.73,23.5 mg/kg,,,,
"CO[C@@]12[C@H](COC(N)=O)C3=C(C(=O)C(C)=C(NCCSCOC(=O)NCCC(=O)OC(C)(C)C)C3=O)N1C[C@@H]1N[C@@H]12 [Compound 2, 7-N--[2-(2-t-butoxycarbonylethyl)aminocarbonyloxymethylthioethyl]mitomycin C]",45 mg/kg,1.44,11.2 mg/kg,,,,
"CC1=C(NCCSC(=S)NC2CCCCC2)C(=O)C2=C(C1=O)N1C[C@H]3[C@H](N3C)[C@]1(O)[C@H]2COC(N)=O (stereo partly shown) [Compound 38, 7-N--(2-cyclohexylaminothiocarbonylthioethyl)mitomycin D]",75 mg/kg,0.79,39.5 mg/kg,,,,
"CNC(=S)SCCNC1=C(C)C(=O)C2=C(C1=O)[C@@H](COC(N)=O)[C@@]1(OC)[C@H]3N[C@H]3CN21 [Compound 25, 7-N--(2-methylaminothiocarbonylthioethyl)mitomycin C]",52.5 mg/kg,1.96,10.5 mg/kg,,,,
"CO[C@@]12[C@H](COC(N)=O)C3=C(C(=O)C(C)=C(NCCSC(=O)NCCc4ccccn4)C3=O)N1C[C@@H]1N[C@@H]12 [Compound 49, 7-N--[2-{2-(2-pyridyl)ethyl}aminocarbonylthioethyl]mitomycin C]",75 mg/kg,1.57,22.8 mg/kg,,,,
"CNC(=O)[C@@H]1CCCN1C(=O)SCCNC1=C(C)C(=O)C2=C(C1=O)[C@@H](COC(N)=O)[C@@]1(OC)[C@H]3N[C@H]3CN21 [Compound 17, 7-N--[2-((S)--2-methylaminocarbonylpyrrolidino)-carbonylthioethyl]mitomycin C]",75 mg/kg,1.32,21.7 mg/kg,,,,
"CO[C@@]12[C@H](COC(N)=O)C3=C(C(=O)C(C)=C(NCCSC(=O)N4CCC[C@H]4C(=O)N(C)C)C3=O)N1C[C@@H]1N[C@@H]12 [Compound 18, 7-N--[2-((S)--2-dimethylaminocarbonylpyrrolidino)carbonylthioethyl]mitomycin C]",97.5 mg/kg,3.02,12.3 mg/kg,,,,
"CO[C@@]12[C@H](COC(N)=O)C3=C(C(=O)C(C)=C(NCCSC(=O)N(C)NC=O)C3=O)N1C[C@@H]1N[C@@H]12 [Compound 35, 7-N--[2-(1-methyl-2-formylhydrazino)carbonylthioethyl]mitomycin C]",105 mg/kg,1.30,27.9 mg/kg,,,,
"CO[C@@]12[C@H](COC(N)=O)C3=C(C(=O)C(C)=C(NCCSC(=O)N4CCC(Cc5ccccc5)CC4)C3=O)N1C[C@@H]1N[C@@H]12 [Compound 41, 7-N--[2-(4-benzylpiperidino)carbonylthioethyl]mitomycin C]",41.3 mg/kg,1.37,13.7 mg/kg,,,,
"COC(=O)[C@@H]1CC(O)CN1C(=O)SCCNC1=C(C)C(=O)C2=C(C1=O)[C@@H](COC(N)=O)[C@@]1(OC)[C@H]3N[C@H]3CN21 (stereo partly drawn) [Compound 44, 7-N--[2-((S)--2-methoxycarbonyl-(SR)-4-hydroxypyrrolidino)carbonylthioethyl]mitomycin C]",> 100 mg/kg,> 1.85,27.5 mg/kg,,,,
"CO[C@@]12[C@H](COC(N)=O)C3=C(C(=O)C(C)=C(NCCSC(=O)N4CCC[C@H]4C(N)=O)C3=O)N1C[C@@H]1N[C@@H]12 [Compound 19, 7-N--[2-((S)--2-carbamoylpyrrolidino)carbonylthioethyl]mitomycin C]",75 mg/kg,1.46,19.6 mg/kg,,,,
"CO[C@@]12[C@H](COC(N)=O)C3=C(C(=O)C(C)=C(NCCSC(=O)NCCC(=O)OCc4ccccc4)C3=O)N1C[C@@H]1N[C@@H]12 [Compound 3, 7-N--[2-(2-benzyloxycarbonylethyl)aminocarbonylthioethyl]mitomycin C]",> 100 mg/kg,> 0.89,39.6 mg/kg,,,,
"CO[C@@]12[C@H](COC(N)=O)C3=C(C(=O)C(C)=C(NCCSC(=O)N4CCCC4)C3=O)N1C[C@@H]1N[C@@H]12 [Compound 21, 7-N--(2-pyrrolidinocarbonylthioethyl)mitomycin C]",37.5 mg/kg,1.44,8.4 mg/kg,,,,
"CO[C@@]12[C@H](COC(N)=O)C3=C(C(=O)C(C)=C(NCCSC(=O)NC(C(C)C)C(C)C)C3=O)N1C[C@@H]1N[C@@H]12 [Compound 46, 7-N--[2-(1-isopropyl-2-methylpropyl)aminocarbonylthioethyl]mitomycin C]",37.5 mg/kg,1.27,12.5 mg/kg,,,,
"CO[C@@]12[C@H](COC(N)=O)C3=C(C(=O)C(C)=C(NCCSC(=O)NC(CO)C(C)C)C3=O)N1C[C@@H]1N[C@@H]12 (stereo partly shown) [Compound 48, 7-N--[2-(1-hydroxymethyl-2-methylpropyl)aminocarbonylthioethyl]mitomycin C]",45 mg/kg,1.39,14.3 mg/kg,,,,
"CO[C@@]12[C@H](COC(N)=O)C3=C(C(=O)C(C)=C(NCCSC(=O)N4CCC[C@H]4C(=O)OCc4ccccc4)C3=O)N1C[C@@H]1N[C@@H]12 [Compound 16, 7-N--[2-((S)--2-benzyloxycarbonylpyrrolidino)-carbonylthioethyl]mitomycin C]",> 100 mg/kg,> 0.45,84.4 mg/kg,,,,
"CO[C@@]12[C@H](COC(N)=O)C3=C(C(=O)C(C)=C(NCCSC(=O)N4CCCCC4)C3=O)N1C[C@@H]1N[C@@H]12 [Compound 42, 7-N--(2-piperidinocarbonylthioethyl)mitomycin C]",33.8 mg/kg,1.14,9.34 mg/kg,,,,
"CO[C@@]12[C@H](COC(N)=O)C3=C(C(=O)C(C)=C(NCCSC(=O)N(C)C)C3=O)N1C[C@@H]1N[C@@H]12 [Compound 8, 7-N--(2-dimethylaminocarbonylthioethyl)mitomycin C]",26.3 mg/kg,0.65,14.4 mg/kg,,,,
"CCCCNC(=O)SCCNC1=C(C)C(=O)C2=C(C1=O)[C@@H](COC(N)=O)[C@@]1(OC)[C@H]3N[C@H]3CN21 [Compound 28, 7-N--(2-n-butylaminocarbonylthioethyl)mitomycin C]",43.8 mg/kg,1.73,9.9 mg/kg,,,,
"CO[C@@]12[C@H](COC(N)=O)C3=C(C(=O)C(C)=C(NCCSC(=O)N4CCC(O)CC4)C3=O)N1C[C@@H]1N[C@@H]12 [Compound 43, 7-N--[2-(4-hydroxypiperidino)carbonylthioethyl]mitomycin C]",52.5 mg/kg,2.17,9.15 mg/kg,,,,
CO[C@@]12[C@H](COC(N)=O)C3=C(C(=O)C(C)=C(NCCSC(=S)NC(c4ccccc4)c4ccccc4)C3=O)N1C[C@@H]1N[C@@H]12 [Compound 50],,,,> 2.39,1.10,12.5 mg/kg,0.74 mg/kg
